Data: article PMC11945486, “TAS1R2/TAS1R3 Single-Nucleotide Polymorphisms Affect Sweet Taste Receptor Activation by Sweeteners: The SWEET Project” (Nutrients, 2025)

Target: T1, human TAS1R2-P21L (subunit alone) (Homo sapiens, UniProt Q8TE23, P21L)
T1 construct: expressed in transfected cells; host or cells: HEK293T-Gα16gust44
T1 sequence (Q8TE23 20-839 P21L): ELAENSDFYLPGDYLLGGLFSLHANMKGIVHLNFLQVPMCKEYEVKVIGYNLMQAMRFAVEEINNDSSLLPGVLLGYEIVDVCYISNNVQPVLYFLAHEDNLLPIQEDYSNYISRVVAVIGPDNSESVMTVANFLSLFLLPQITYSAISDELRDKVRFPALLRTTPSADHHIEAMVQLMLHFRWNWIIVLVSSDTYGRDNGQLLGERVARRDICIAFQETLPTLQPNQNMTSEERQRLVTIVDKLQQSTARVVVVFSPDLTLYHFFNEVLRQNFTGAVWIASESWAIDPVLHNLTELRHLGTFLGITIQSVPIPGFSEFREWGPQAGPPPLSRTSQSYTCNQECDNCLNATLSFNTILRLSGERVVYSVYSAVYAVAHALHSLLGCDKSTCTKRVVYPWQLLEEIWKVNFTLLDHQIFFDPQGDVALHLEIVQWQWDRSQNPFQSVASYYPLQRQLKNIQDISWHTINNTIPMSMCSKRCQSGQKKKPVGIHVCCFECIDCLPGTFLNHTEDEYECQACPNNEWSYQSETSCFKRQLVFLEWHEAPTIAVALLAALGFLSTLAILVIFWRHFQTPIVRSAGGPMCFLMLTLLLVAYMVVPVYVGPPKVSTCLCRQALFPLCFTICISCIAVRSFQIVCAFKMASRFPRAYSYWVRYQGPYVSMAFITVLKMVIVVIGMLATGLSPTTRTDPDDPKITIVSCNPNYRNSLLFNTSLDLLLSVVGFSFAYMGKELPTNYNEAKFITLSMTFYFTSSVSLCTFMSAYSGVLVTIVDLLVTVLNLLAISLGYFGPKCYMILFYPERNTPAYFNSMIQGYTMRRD
Experiment: Calcium mobilisation assay, TAS1R2-P21L subunit alone
Type: cell-based
Description: The coding sequences for TAS1R2 and TAS1R3 were commercially synthesised, and the human codon was optimised for expression in human cells. The coding sequences of human TAS1R2 and TAS1R3 were subcloned and inserted into the mammalian expression vectors pcDNA6/myc-HisA and pcDNA4/myc-HisA (Invitrogen; Thermo Fisher Scientific; Illkirch, France) between the EcoRI and NotI restriction sites, generating the plasmids pcDNA6-TAS1R2 and pcDNA4-TAS1R3, respectively. To increase protein expression in mammalian cells, an upstream start codon was used, which was a sequence called MAX, corresponding to the QBI SP163 element also described in pcDNA4-HisMax (Invitrogen; Thermo Fisher Scientific; Illkirch, France). To measure the expression level of the receptor by immunohistochemistry, we used the FLAG sequence ([…]) in the C-terminal position, which encodes the FLAG tag epitope. […]
The HEK293T cells were kindly provided by Jay P. Slack (Givaudan Flavors Corporation; Cincinnati, OH, USA). […] The fluorescence intensity was measured for 90 s (excitation 488 nm, emission 510 nm) in an automated fluorometric FlexStation®3 Multi-Mode microplate reader (Molecular Devices; San Jose, CA, USA). […] The Ca^2+ changes were expressed as fractional changes in fluorescent light intensity: ΔF/F = (F − F0)/F0, where F was the fluorescent light intensity at each point, and F0 was the value of emitted fluorescent light prior to stimulus application. To calculate dose–response relationships, the changes in fluorescence upon stimulus application were averaged, mock-subtracted and baseline-corrected. […] The half-maximal effective concentrations (EC50 values) and maximal signal amplitudes were calculated using SigmaPlot software (version 15.0) (Systat Software; San Jose, CA, USA).
For in vitro calcium mobilisation assay performed on hTAS1R2-SNPs, hTAS1R3-SNPs and mTAS1R3-I60T, 6 to 7 concentrations were tested for each sweet compound, plus buffer alone. All concentration–receptor combinations were measured in duplicate, and each experiment was repeated at least 4 times (8 wells/concentration). […]

Question: Which EC50 does the source give for `C=C(C)[C@@H]1CC=C(/C=N/O)CC1` [Perillartine, perillartine] here?
Answer: 149 ± 22.7 µM

Question: And the “R1 = Variant EC50/WT EC50” value?
Answer: 1.7

Question: What about the “Max ΔF/F0” value (maximal signal amplitude) of the same compound?
Answer: 0.33 ± 0.02
